The values that follow come from patent US20060003016A1, “Therapeutic method for endolymphatic hydrops associated diseases” (priority 2004, published 2006).

This experiment relates to patients with Meniere's disease. An excerpt: In the present case who could be followed up for more than 24 months after treatment with water intake, the therapeutic effect was judged by using the criteria of AAO-HNS (1995)^14), 15). Proviso that in an examination on changes of the hearing, although the criteria in the four-frequency pure-tone averages (PTA) of AAO-HNS (1995)^14) adopted mean values of the hearing levels consisting of 500 Hz, 1000 Hz, 2000 Hz and 3000 Hz, in our case, the value of 4000 Hz was used in stead of that of 3000 Hz.
Therapeutic effect for vertigo^14), 15) was calculated according to the following equation. [formula]
Namely, in the present case, vertiginous attack in 6 months during 18 months-24 months after the treatment was 0 time, and average numbers of rotatory vertigo per month for 6 months before the treatment were 2 times (i.e. onset in Mar. 5, 2000 and Jul. 22, 2000 within 6 months before Aug. 5, 2000). Consequently, applying the above equation: [formula] […] Clinical Case 4 Low Frequency Sensorineural Hearing Loss of the Right Ear

Molecules are shown by their SMILES. Where two headings read alike, the source gives them in different places.

Regarding `O` [water intake, water], the “category of therapeutic effect for vertigo, AAO-HNS criteria” value is “complete control” (case 3, water intake); “complete control” (case 6, water intake); “complete control” (case 7, water intake); “complete control” (case 8, water intake). The “vertiginous attack in 6 months during 18 months-24 months after the treatment” value runs as follows: (case 3, water intake, 2 times in 6 months before) 0 time; (case 6, water intake, 4 times estimated in 6 months before) 0 time; (case 7, water intake, 0 time in 6 months before) 0 time; (case 8, water intake, 1 in 6 months before) 0 time.
